Test: Topical application of alkaloid-containing analgesic salve formulations, observed pain relief
Format: in vivo, patients
Details: for notable effect of secondary ingredient added to formulation: secondary ingredient in topical formulation
Source text: In most embodiments, three-cup batches of oil and wax (e.g.; 2¼ cup oil, ¾ cup wax or other hardening agent) were infused with an extract produced from at least two ounces of plant matter processed using the above method. In a preferred embodiment, an extract produced from around 4.5 to 6 ounces of herbal material yielded the best results as far as optimal pain relief for the amount of product used.
In one embodiment, a formulation for a kratom alkaloid-based topical product involves extracting alkaloids from kratom powder into a food-grade oil (such as coconut oil) at 160° F. The powder may be combined with a lecithin (such as a sunflower lecithin) to aid in extraction.
In a further embodiment, a formulation involves extracting alkaloids from kratom powder into a food-grade oil at 160° F. for two hours and adding one or more carrier oils. The carrier oils comprise black pepper oil, turmeric oil, peppermint oil and lemon oil. A hardening agent, such as beeswax, may also be added. Piperine (a black pepper alkaloid), curcumin (a metabolite of turmeric), peppermint oil, and lemon oil are intended as dermal carriers and absorption enhancers. Piperine is known to increase curcumin bioavailability.
In a further embodiment, a severe pain relief formulation involves extracting alkaloids from kratom powder into a food-grade oil at 160° F. for two hours and adding one or more carrier oils. The carrier oils comprise black pepper oil, turmeric oil, peppermint oil (alternately, eucalyptus or naioli oils will suffice since they contain similar compounds), lemon oil, magnesium oil, St John's Wort oil, arnica oil, parsley oil, cinnamon oil, lemongrass oil, ginger oil, arnica oil (comprises helenalin, fatty acids (inolenic, palmitic, linoleic, and myristic) thymol, ethers of thymol, thymohydroquinone dimethyl ether, and phlorol isobutyrate (2%)), Ylang Ylang (Cananga odorata) oil (comprises linalool, caryophyllene and germacrene), and/or Black Seed oil (comprises anethole, p-cymene, limonene, carvone and thymoquinone). […] FIG. 2 provides a table 200 listing primary herbal extract sources 210 and secondary ingredients 220, including but not limited to dermal absorption enhancers 222, alkaloid potentiators 224, neuropathic relief agents 226, and anti-inflammation agents 228.
In yet another embodiment, a severe pain and inflammation relief formulation involves extracting alkaloids from kratom powder into a food-grade oil at 160° F. for two hours and adding one or more carrier oils. The carrier oils comprise black pepper oil, turmeric oil, peppermint oil, lemon oil, magnesium oil, St. John's Wort oil, arnica oil, and ginger oil. The kratom powder may be a combination of concentrated kratom extract and kratom powder. […]

Molecule	increase of the effect of a formulation (duration) (added to the formulation as alkaloid potentiator)	notable effect of secondary ingredient added to formulation
Oc1ccc(/C=C/c2cc(O)cc(O)c2)cc1 [Trans-resveratrol]	approximately two hours or longer	–
O=c1c(O)c(-c2ccc(O)c(O)c2)oc2cc(O)cc(O)c12 [quercetin]	–	decreased pain and inflammation
copper salicylate	–	minor improvement to pain relief
magnesium stearate	–	relieved muscle spasms

Reference: patent publication US20210330731A1, “TOPICAL SALVE FORMULATIONS FOR DERMAL ALKALOID DELIVERY” (priority 2020, published 2021)
